Tests used:
stressed rats = test: Tests made on rats: activity level of stressed rats; type: in vivo; conditions: 5 mg fluoxetine per kg and/or 50 mg ASA per kg, unstressed control 30, stressed 2
Method: Four groups of rats have been stressed. One group of rats remain unstressed so as to serve as control.
After being stressed, the rats of the first group received a dose of 50 mg ASA per kg. The second group of rats received no treatment. The third group of rats received 5 mg fluoxetine per kg, and the fourth group of rats received simultaneously 5 mg fluoxetine+50 mg ASA per kg.
The treatment was continued during 3 weeks.
In said test, the doses of ASA and fluoxetine have been adapted for rats.

volunteers = test: Informal tests on volunteers: oral ASA dose with oral antidepressant; type: in vivo, human; conditions: oral ASA less than 50 mg with an antidepressant
Method: From said tests and informal tests made on volunteers, in which after (just after, less than 5 minutes after) and prior oral administration of an antidepressant, a dose of ASA was orally administered, it appears that the oral dose of ASA had to be lowered to less than 50 mg, especially between 5 and 50 mg.
From this test, it seems that the antidepressant action could already be achieved in less than 7 days, and even in less than 3 to 4 days, although when not using low dose of ASA, the antidepressant action is for example of at least 4 weeks for SSRI.

SSRI responding human = test: Higher dose of ASA administered to SSRI responding human; type: in vivo; conditions: ASA dose of 100 mg

SMILES | activity after 1 week of treatment (stressed rats) | activity after three weeks of treatment (stressed rats) | bleeding (volunteers) | influence on the time of onset of antidepressant action (SSRI responding human)
CNCCC(Oc1ccc(C(F)(F)F)cc1)c1ccccc1 (racemic) [fluoxetine, (±)-N-methyl-3-phenyl-3-[(α-α-α-trifluoro-p-tolyl)oxy] propylamine] | no increase at all of the activity | about 25 | – | –
CC(=O)Oc1ccccc1C(=O)O [ASA, acetyl salicylic acid] | no increase at all of the activity | no improvement of activity | no bleeding was observed | no influence or even to have a negative influence
